Patent US20050171358A1 (priority 2002, published 2005)

Columns and labels:
[1] = test system: Colletotrichum lagenarium; conditions: 200 ppm spray on cucumber (3 leaf stage), inoculated next day; lesion numbers on first and second leaves after 7 days in green house, graded by Table 5
[2] = test system: Pyricularia oryzae; assay type: in vivo; conditions: 200 ppm spray on rice (Koshihikari, 3 leaf stage), inoculated next day; lesion numbers on third leaves after 7 days in green house, graded by Table 5

| SMILES | Evaluation (effect for cucumber anthracnose) [1] | Evaluation (effect for rice blast) [2] |
| --- | --- | --- |
| COc1ccc(C(=O)NCc2cc(C=C(C)C)no2)cc1 [III-216, N-{[3-(2-methyl-1-propenyl)-5-isoxazolyl]methyl}-4-methoxylbenzamide] | 4 (1˜5) | 4 (1˜5) |
| Cc1ccc(C(=O)NCc2cc(-c3ccccn3)no2)cc1 [III-217, N-{[3-(2-pyridyl)-5-isoxazolyl]methyl}-4-methylbenzamide] | 4 (1˜5) | 4 (1˜5) |
| Cc1ccc(C(=O)NCc2cc(-c3cccnc3)no2)cc1 [III-218, N-{[3-(3-pyridyl)-5-isoxazolyl]methyl}-4-methylbenzamide] | 4 (1˜5) | 3 (6˜10) |
| Cc1ccc(C(=O)NCc2cc(-c3ccncc3)no2)cc1 [III-219, N-{[3-(4-pyridyl)-5-isoxazolyl]methyl}-4-methylbenzamide] | 3 (6˜10) | 3 (6˜10) |
| COc1ccc(C(=O)NCc2cc(-c3ccsc3)no2)cc1 [III-220, N-{[3-(3-thienyl)-5-isoxazolyl]methyl}-4-methoxylbenzamide] | 3 (6˜10) | 3 (6˜10) |
| C/C=C/C=C/c1cc(CNC(=O)c2ccc(OC)cc2)on1 [III-221, N-{[3-(1,3-pentadienyl)-5-isoxazolyl]methyl}-4-methoxylbenzamide] | 2 (11˜20) | 2 (11˜20) |
| COc1ccc(C(=O)NCc2cc(-c3cc4ccccc4n3C)no2)cc1 [III-223, N-{[3-(1-methylindol-2-yl)-5-isoxazolyl]methyl}-4-methoxybenzamide] | 5 (0) | 5 (0) |
| COc1ccc(C(=O)NCc2cc(-c3nc4ccccc4s3)no2)cc1 [III-224, N-{[3-(benzo[d]thiazol-2-yl)-5-isoxazolyl]methyl}-4-methoxybenzamide] | 2 (11˜20) | 2 (11˜20) |
| COc1ccc(C(=O)NCc2cc(C(C)C)no2)cc1 [III-225, N-[(3-isopropyl-5-isoxazolyl)methyl]-4-methoxybenzamide] | 4 (1˜5) | 4 (1˜5) |
| Cc1ccc(-c2cc(CNC(=O)C3CCCC3)on2)cc1 [III-227, N-{[3-(4-tolyl)-5-isoxazolyl]methyl}cyclopentanecarboxamide] | 5 (0) | 5 (0) |
| Cc1ccc(-c2cc(CNC(=O)C3CCC3)on2)cc1 [III-228, N-{[3-(4-tolyl)-5-isoxazolyl]methyl}cyclobutanecarboxamide] | 3 (6˜10) | 4 (1˜5) |
| COc1ccc(C(=O)NCc2cc(CC(C)C)no2)cc1 [III-229, N-[(3-isobutyl-5-isoxazolyl)methyl]-4-methoxybenzamide] | 5 (0) | 5 (0) |
| CCC(CC)c1cc(CNC(=O)c2ccc(OC)cc2)on1 [III-230, N-{[3-(1-ethylpropyl)-5-isoxazolyl]methyl}-4-methoxybenzamide] | 5 (0) | 5 (0) |
| COc1ccc(C(=O)NCc2cc(-c3ccccc3Cl)no2)cc1 [III-231, N-{[3-(2-chlorophenyl)-5-isoxazolyl]methyl}-4-methoxybenzamide] | 5 (0) | 5 (0) |
| COc1ccc(C(=O)NCc2cc(-c3nc(-c4ccccc4)no3)no2)cc1 [III-232, N-{[3-(3-phenyl-1,2,4-oxadiazol-5-yl)-5-isoxazolyl]methyl]-4-methoxybenzamide] | 2 (11˜20) | 3 (6˜10) |
| CCCCc1cc(CNC(=O)c2ccc(OC)cc2)on1 [III-235, N-[(3-butyl-5-isoxazolyl)methyl]-4-methoxybenzamide] | 4 (1˜5) | 4 (1˜5) |
| CCC(C)c1cc(CNC(=O)c2ccc(OC)cc2)on1 (centres unmarked) [III-236, N-[(3-sec-butyl-5-isoxazolyl)methyl]-4-methoxybenzamide] | 4 (1˜5) | 4 (1˜5) |
| COc1ccc(C(=O)NCc2cc(C(C)(C)C)no2)cc1 [III-237, N-[(3-tert-butyl-5-isoxazolyl)methyl]-4-methoxybenzamide] | 3 (6˜10) | 3 (6˜10) |
| COc1ccc(C(=O)NCc2cc(C3CCCCC3)no2)cc1 [III-238, N-[(3-cyclohexyl-5-isoxazolyl)methyl]-4-methoxybenzamide] | 5 (0) | 4 (1˜5) |
| Cc1ccc(-c2cc(CNC(=O)c3cc(Cl)nc(Cl)c3)on2)cc1 [III-240, N-{[3-(4-tolyl)-5-isoxazolyl]methyl}-2,6-dichloropyridine-4-carboxamide] | 2 (11˜20) | 2 (11˜20) |

| SMILES | Evaluation (effect for cucumber anthracnose) [1] | Evaluation (effect for rice blast) [2] |
| --- | --- | --- |
| CC(C)c1cc(CNC(=O)c2cc(Cl)nc(Cl)c2)on1 [III-243, N-[(3-isopropyl-5-isoxazolyl)methyl]-2,6-dichloropyridine-4-carboxamide] | 1 (21˜41) | 2 (11˜20) |
| CCCc1cc(CNC(=O)c2ccc(OC)cc2)on1 [III-245, N-[(3-propyl-5-isoxazolyl)methyl]-4-methoxybenzamide] | 5 (0) | 5 (0) |
| CCCC(C)c1cc(CNC(=O)c2ccc(OC)cc2)on1 (centres unmarked) [III-246, N-[(3-sec-pentyl-5-isoxazolyl)methyl]-4-methoxybenzamide] | 3 (6˜10) | 3 (6˜10) |
| COc1ccc(C(=O)NCc2cc(-c3ccc(C)o3)no2)cc1 [III-247, N-{[3-(2-methylfuran-5-yl)-5-isoxazolyl]methyl}-4-methoxybenzamide] | 5 (0) | 5 (0) |
| CCCCCC#Cc1cc(CNC(=O)c2ccc(OC)cc2)on1 [III-248, N-{[3-(1-heptynyl)-5-isoxazolyl]methyl}-4-methoxybenzamide] | 2 (11˜20) | 3 (6˜10) |
| COc1ccc(C(=O)NCc2cc(C(OC)OC)no2)cc1 [III-249, N-[(3-dimethoxymethyl-5-isoxazolyl)methyl]-4-methoxybenzamide] | 2 (11˜20) | 2 (11˜20) |
| COc1ccc(C(=O)NCc2cc(ON=C(C)C)no2)cc1 [III-250, N-[(3-isopropyliminoxy-5-isoxazolyl)methyl]-4-methoxybenzamide] | 2 (11˜20) | 2 (11˜20) |
| Cc1ccc(C(=O)NCc2cc(CC(C)C)no2)cc1 [III-251, N-[(3-isobutyl-5-isoxazolyl)methyl]-4-methylbenzamide] | 5 (0) | 5 (0) |
| CC(C)Cc1cc(CNC(=O)c2ccc(Cl)cc2)on1 [III-252, N-[(3-isobutyl-5-isoxazolyl)methyl]-4-chlorobenzamide] | 5 (0) | 5 (0) |
| CC(C)Cc1cc(CNC(=O)c2ccc(Cl)cc2Cl)on1 [III-253, N-[(3-isobutyl-5-isoxazolyl)methyl]-2,4-dichlorobenzamide] | 5 (0) | 5 (0) |
| CC(C)Cc1cc(CNC(=O)c2ccc(Cl)c(Cl)c2)on1 [III-255, N-[(3-isobutyl-5-isoxazolyl)methyl]-3,4-dichlorobenzamide] | 4 (1˜5) | 4 (1˜5) |
| CC(C)Cc1cc(CNC(=O)c2ccc(Br)cc2)on1 [III-256, N-[(3-isobutyl-5-isoxazolyl)methyl]-4-bromobenzamide] | 5 (0) | 5 (0) |
| CC(C)Cc1cc(CNC(=O)c2ccc(C(F)(F)F)cc2)on1 [III-257, N-[(3-isobutyl-5-isoxazolyl)methyl]-4-trifluoromethylbenzamide] | 4 (1˜5) | 3 (6˜10) |
| CCc1ccc(C(=O)NCc2cc(CC(C)C)no2)cc1 [III-258, N-[(3-isobutyl-5-isoxazolyl)methyl]-4-ethylbenzamide] | 4 (1˜5) | 5 (0) |
| CC(C)Cc1cc(CNC(=O)c2ccc3ccccc3c2)on1 [III-259, N-[(3-isobutyl-5-isoxazolyl)methyl]-2-naphthalenecarboxamide] | 4 (1˜5) | 5 (0) |
| CC(C)Cc1cc(CNC(=O)c2cccc3ccccc23)on1 [III-262, N-[(3-isobutyl-5-isoxazolyl)methyl]-1-naphthalenecarboxamide] | 5 (0) | 5 (0) |
| CCCc1cc(CNC(=O)c2ccc(Cl)cc2)on1 [III-263, N-[(3-propyl-5-isoxazolyl)methyl]-4-chlorobenzamide] | 5 (0) | 5 (0) |
| CCCc1cc(CNC(=O)c2ccc(Br)cc2)on1 [III-264, N-[(3-propyl-5-isoxazolyl)methyl]-4-bromobenzamide] | 5 (0) | 5 (0) |
| CCCc1cc(CNC(=O)c2ccc(Cl)cc2Cl)on1 [III-265, N-[(3-propyl-5-isoxazolyl)methyl]-2,4-dichlorobenzamide] | 4 (1˜5) | 5 (0) |
| O=C(NCc1cc(CBr)no1)c1ccc(Cl)cc1Cl [III-275, N-[(3-bromomethyl-5-isoxazolyl)methyl]-2,4-dichlorobenzamide] | 2 (11˜20) | 2 (11˜20) |
